Measured values reported in patent publication US8288371B2, “Ortho pyrrolidine, benzyl-substituted heterocycle CCR1 antagonists for autoimmune diseases and inflammation” (Pharmacopeia, LLC, priority 2007, dated 2012).

Molecular target: T1, human CCR1 (Homo sapiens, UniProt P32246)
T1 sequence (P32246 1-355): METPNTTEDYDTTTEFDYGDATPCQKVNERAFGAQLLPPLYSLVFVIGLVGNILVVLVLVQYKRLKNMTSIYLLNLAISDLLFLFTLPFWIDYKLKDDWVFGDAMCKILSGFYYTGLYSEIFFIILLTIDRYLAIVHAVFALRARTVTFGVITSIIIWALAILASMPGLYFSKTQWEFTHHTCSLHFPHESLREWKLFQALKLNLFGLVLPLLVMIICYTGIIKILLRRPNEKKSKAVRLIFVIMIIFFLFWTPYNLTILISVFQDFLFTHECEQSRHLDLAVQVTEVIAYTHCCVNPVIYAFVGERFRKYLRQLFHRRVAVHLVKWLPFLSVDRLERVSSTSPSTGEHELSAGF
Experiment: CCR1 binding protocol (SPA, [125I]-MIP-1α displacement)
Details: cell membrane expressing human CCR1, 0.1 nM [125I]-MIP-1α, 4 hours at ambient temperature; read-out: Relative potency (IC50)
Summary of the method: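 Displacement of 0.1 nM [125I]-MIP-1α (final) from membranes expressing human CCR1 was measured by scintillation proximity after 4 h at ambient temperature. Conditions: pH 7.4 Tris buffer with 0.1% BSA and MnCl, and 0.5 μg membrane per well. Compounds were tested as a 10-step ½-log series from a 10 mM DMSO stock to derive IC50.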

| IC50 [nM] | SMILES |
| --- | --- |
| < 50 | Cc1nnc([C@H]2CCCN2C(=O)Nc2ccc(S(=O)(=O)N(C)C)cc2Cl)n1Cc1ccc(Cl)cc1 [Compound 451] |
| < 50 | CNS(=O)(=O)c1ccc(NC(=O)N2CCC[C@@H]2c2nnc(C)n2Cc2ccc(Cl)cc2)c(Cl)c1 [Compound 452] |
| 50 to 500 | Cc1nnc([C@H]2CCCN2C(=O)Nc2cnc(C(F)(F)F)nc2)n1Cc1ccc(Cl)cc1 [Compound 453] |
| 50 to 500 | Cc1nnc([C@H]2CCCN2C(=O)Nc2ccc(C#N)cc2F)n1Cc1ccc(Cl)cc1 [Compound 454] |
| 50 to 500 | Cc1cc(C)c(S(=O)(=O)O)cc1NC(=O)N1CCC[C@@H]1c1nnc(C)n1Cc1ccc(Cl)cc1 [Compound 455] |
| 50 to 500 | Cc1nnc([C@H]2CCCN2C(=O)Nc2ccc(S(=O)(=O)O)cc2Cl)n1Cc1ccc(Cl)cc1 [Compound 456] |
| 50 to 500 | Cc1c(Cl)nc([C@H]2CCCN2C(=O)Nc2ccc(Cl)cc2F)n1Cc1ccc(Cl)cc1 [Compound 457] |
| < 50 | CC[C@@H](NC(=O)N1CCC[C@@H]1c1nnc(C)n1Cc1ccc(Cl)cc1)c1ccc(C(F)(F)F)nc1 [Compound 458] |
| < 50 | COCc1nnc([C@H]2CCCN2C(=O)N[C@H]2CCOc3cc(C(F)(F)F)ccc32)n1Cc1ccc(Cl)cc1 [Compound 459] |
| < 50 | Cc1nnc([C@H]2CCCN2C(=O)N[C@H](C)c2ccc(C(F)(F)F)nc2)n1Cc1ccc(Cl)cc1 [Compound 460] |
| 50 to 500 | Cc1nnc([C@H]2CCCN2C(=O)Cc2cccc(C(F)(F)F)c2)n1Cc1ccc(Cl)cc1 [Compound 461] |
| 50 to 500 | COCc1nnc([C@H]2CCCN2C(=O)NCc2ccc(Cl)cc2Cl)n1Cc1ccc(Cl)cc1 [Compound 462] |
| 50 to 500 | COCc1nnc([C@H]2CCCN2C(=O)N[C@@H](C)c2ccc(Cl)cc2)n1Cc1ccc(Cl)cc1 [Compound 463] |
| 500 to 5000 | Cc1nnc([C@H]2CCCN2C(=O)Nc2nnc(C(F)(F)F)s2)n1Cc1ccc(Cl)cc1 [Compound 464] |
| 500 to 5000 | COCc1nnc([C@H]2CCCN2C(=O)Nc2ccc(Cl)cc2F)n1Cc1ccc(Cl)cc1 [Compound 465] |
| < 50 | Cc1nc(C(F)(F)F)nc(C)c1NC(=O)N1CCC[C@@H]1c1nnc(C)n1Cc1ccc(Cl)cc1 [Compound 466] |
| < 50 | CC[C@H](NC(=O)N1CCC[C@@H]1c1nnc(C)n1Cc1ccc(Cl)cc1)c1ccc(C(F)(F)F)nc1 [Compound 467] |
| < 50 | Cc1nnc([C@H]2CCCN2C(=O)N[C@@H](C)c2ccc(C(F)(F)F)nc2)n1Cc1ccc(Cl)cc1 [Compound 468] |
| < 50 | Cc1cc(C)c(S(N)(=O)=O)cc1NC(=O)N1CCC[C@@H]1c1nnc(C)n1Cc1ccc(Cl)cc1 [Compound 469] |
| < 50 | Cc1nnc([C@H]2C[C@H](O)CN2C(=O)NCc2ccc(Cl)cc2Cl)n1Cc1ccc(Cl)cc1 [Compound 470] |
| < 50 | Cc1nnc([C@H]2C[C@H](O)CN2C(=O)NCc2ccc(C(F)(F)F)cc2)n1Cc1ccc(Cl)cc1 [Compound 471] |
| < 50 | O=C(N[C@H]1CCOc2cc(C(F)(F)F)ccc21)N1C[C@H](O)C[C@@H]1c1nncn1Cc1ccc(Cl)cc1 [Compound 472] |

| IC50 [nM] | SMILES |
| --- | --- |
| < 50 | Cc1nnc([C@H]2CCCN2C(=O)Nc2c(F)cc(F)cc2F)n1Cc1ccc(Cl)cc1 [Compound 473] |
| < 50 | Cc1nnc([C@H]2C[C@H](O)CN2C(=O)N[C@@H](C)c2ccc(Cl)cc2)n1Cc1ccc(Cl)cc1 [Compound 474] |
| 50 to 500 | O=C(NCc1ccc(Cl)cc1Cl)N1C[C@H](O)C[C@@H]1c1nncn1Cc1ccc(Cl)cc1 [Compound 475] |
| 50 to 500 | O=C(NC(c1ccccc1)c1ccccc1)N1C[C@H](O)C[C@@H]1c1nncn1Cc1ccc(Cl)cc1 [Compound 476] |
| 50 to 500 | O=C(NC1(c2ccc(C(F)(F)F)cc2)CC1)N1C[C@H](O)C[C@@H]1c1nncn1Cc1ccc(Cl)cc1 [Compound 477] |
| 50 to 500 | CC(=O)O[C@@H]1C[C@H](c2nncn2Cc2ccc(Cl)cc2)N(C(=O)NC(c2ccccc2)c2ccccc2)C1 [Compound 478] |
| 50 to 500 | Cc1nnc([C@H]2CCCN2C(=O)C[C@H](C)c2ccccc2)n1Cc1ccc(Cl)cc1 [Compound 479] |
| 50 to 500 | O=C(Nc1ccc(Cl)cc1F)N1C[C@H](O)C[C@@H]1c1nncn1Cc1ccc(Cl)cc1 [Compound 480] |
| 500 to 5000 | CC(=O)O[C@H]1C[C@H](c2nnc(C)n2Cc2ccc(Cl)cc2)N(C(=O)Nc2ccc(Cl)cc2F)C1 [Compound 481] |
| 500 to 5000 | Cc1nnc([C@H]2CCCN2C(=O)C[C@@H](C)c2ccccc2)n1Cc1ccc(Cl)cc1 [Compound 482] |
| < 50 | Cc1cc(C)c(S(=O)(=O)N(C)C)cc1NC(=O)N1CCC[C@@H]1c1nnc(C)n1Cc1ccc(Cl)cc1 [Compound 483] |
| < 50 | CNS(=O)(=O)c1cc(NC(=O)N2CCC[C@@H]2c2nnc(C)n2Cc2ccc(Cl)cc2)c(C)cc1C [Compound 484] |
| 500 to 5000 | CC(=O)O[C@@H]1C[C@H](c2ncnn2Cc2ccc(Cl)cc2)N(C(=O)Nc2ccc(Cl)cc2F)C1 [Compound 485] |
| < 50 | Cc1nnc([C@H]2CCCN2C(=O)Nc2ccc(S(N)(=O)=O)cc2Cl)n1Cc1ccc(Cl)cc1 [Compound 486] |
| < 50 | Cc1nnc([C@H]2CCCN2C(=O)Nc2ccc(Cl)c(C#N)c2)n1Cc1ccc(Cl)cc1 [Compound 487] |
| < 50 | CC(=O)O[C@@H]1C[C@H](c2ncnn2Cc2ccc(Cl)cc2)N(C(=O)N[C@H]2CCOc3cc(C(F)(F)F)ccc32)C1 [Compound 488] |
| 500 to 5000 | NC(=O)c1nnc([C@H]2CCCN2C(=O)N[C@H]2CCOc3cc(C(F)(F)F)ccc32)n1Cc1ccc(Cl)cc1 [Compound 489] |
| 500 to 5000 | NC(=O)c1nnc([C@H]2CCCN2C(=O)Nc2ccc(Cl)cc2F)n1Cc1ccc(Cl)cc1 [Compound 490] |
| < 50 | Cc1nnc([C@H]2C[C@H](O)CN2C(=O)Nc2ccc(C(F)(F)F)nc2Cl)n1Cc1ccc(Cl)cc1 [Compound 491] |
| 50 to 500 | Cc1nnc([C@H]2C[C@H](O)CN2C(=O)Nc2ccc(Cl)nc2Cl)n1Cc1ccc(Cl)cc1 [Compound 492] |
| 50 to 500 | Cc1nnc([C@H]2C[C@@H](O)CN2C(=O)Nc2ccc(C(F)(F)F)nc2Cl)n1Cc1ccc(Cl)cc1 [Compound 494] |
| 50 to 500 | CC[C@@H](NC(=O)N1C[C@@H](O)C[C@@H]1c1nnc(C)n1Cc1ccc(Cl)cc1)c1ccc(C)o1 [Compound 495] |

| IC50 [nM] | SMILES |
| --- | --- |
| 50 to 500 | CC(=O)O[C@@H]1C[C@H](c2nnc(C)n2Cc2ccc(Cl)cc2)N(C(=O)Nc2ccc(C(F)(F)F)nc2Cl)C1 [Compound 496] |
| 50 to 500 | Cc1nnc([C@H]2CCCN2C(=O)Cc2cccc(Cl)c2)n1Cc1ccc(Cl)cc1 [Compound 497] |
| 50 to 500 | Cc1nnc([C@H]2C[C@@H](O)CN2C(=O)Nc2ccc(Cl)nc2Cl)n1Cc1ccc(Cl)cc1 [Compound 498] |
| 50 to 500 | Cc1nnc([C@H]2C[C@H](O)CN2C(=O)Cc2cccc(C(F)(F)F)c2)n1Cc1ccc(Cl)cc1 [Compound 499] |
| 50 to 500 | CC(=O)O[C@@H]1C[C@H](c2nnc(C)n2Cc2ccc(Cl)cc2)N(C(=O)Nc2ccc(Cl)nc2Cl)C1 [Compound 500] |
| 50 to 500 | CC[C@@H](NC(=O)N1C[C@H](O)C[C@@H]1c1nnc(C)n1Cc1ccc(Cl)cc1)c1ccc(C)o1 [Compound 501] |
| 50 to 500 | Cc1nnc([C@H]2C[C@@H](O)CN2C(=O)Cc2cccc(C(F)(F)F)c2)n1Cc1ccc(Cl)cc1 [Compound 502] |
| 500 to 5000 | CC[C@@H](NC(=O)N1C[C@H](OC(C)=O)C[C@@H]1c1nnc(C)n1Cc1ccc(Cl)cc1)c1ccc(C)o1 [Compound 503] |
| 50 to 500 | Cc1nnc([C@H]2CCCN2C(=O)Cc2ccc(F)c(C(F)(F)F)c2)n1Cc1ccc(Cl)cc1 [Compound 504] |
| 50 to 500 | Cc1nnc([C@H]2CCCN2C(=O)Cc2cccc(C(F)(F)F)c2F)n1Cc1ccc(Cl)cc1 [Compound 505] |
| < 50 | Cc1nnc([C@H]2CC(=O)CN2C(=O)N[C@H]2CCOc3cc(C(F)(F)F)ccc32)n1Cc1ccc(Cl)cc1 [Compound 506] |
| 50 to 500 | Cc1nnc([C@H]2CCCN2C(=O)Cc2ccc(Cl)cc2F)n1Cc1ccc(Cl)cc1 [Compound 507] |
| 50 to 500 | Cc1nnc([C@H]2CCCN2C(=O)C(C)c2cccc(Cl)c2)n1Cc1ccc(Cl)cc1 (stereo partly drawn) [Compound 508] |
| 50 to 500 | Cc1nnc([C@H]2CCCN2C(=O)Cc2cc(F)cc(C(F)(F)F)c2)n1Cc1ccc(Cl)cc1 [Compound 509] |
| < 50 | Cc1nnc([C@H]2CCCN2C(=O)Cc2cc(C(F)(F)F)ccc2F)n1Cc1ccc(Cl)cc1 [Compound 510] |
| < 50 | Cc1nnc([C@H]2CCCN2C(=O)Cc2cc(C(F)(F)F)ccc2Cl)n1Cc1ccc(Cl)cc1 [Compound 511] |
| < 50 | Cc1nnc([C@H]2CCCN2C(=O)N[C@H](C)c2nc3ccccc3o2)n1Cc1ccc(Cl)cc1 [Compound 513] |
| 50 to 500 | Cc1nnc([C@H]2CCCN2C(=O)N[C@@H](C)c2nc3ccccc3o2)n1Cc1ccc(Cl)cc1 [Compound 514] |
| < 50 | Cc1nnc([C@H]2CCCN2C(=O)CC2CCOc3cc(C(F)(F)F)ccc32)n1Cc1ccc(Cl)cc1 (stereo partly drawn) [Compound 515] |
| 500 to 5000 | CC[C@H](NC(=O)N1CCC[C@@H]1c1nnc(C)n1Cc1ccc(Cl)cc1)c1nc2ccccc2o1 [Compound 516] |
| 50 to 500 | Cc1nc(C(F)(F)F)ccc1NC(=O)N1CC(C)(O)C[C@@H]1c1nnc(C)n1Cc1ccc(Cl)cc1 (stereo partly drawn) [Compound 517] |
| < 50 | Cc1nnc([C@H]2CCCN2C(=O)Cc2ccc(Cl)nc2)n1Cc1ccc(Cl)cc1 [Compound 518] |
